Measured values published in patent publication US20250115598A1 (Anaxis Pharma Pty Ltd, priority 2021, published 2025).

Assays:
human RIPK1 = human RIPK1 (Homo sapiens (Human), UniProt Q13546); assay: KINOMEscan binding assay, human RIPK1; conditions: Table 21
Description: (§1) Binding affinity of the test compounds for human MLKL (full length), mouse MLKL (full length), human RIPK1 and human RIPK3 was determined using the KINOMEscan™ technology developed by DiscoverX (USA; http://www.discoverx.com). The assay was conducted according to manufacturer instructions.
(§2) Kinase assays. For most assays, kinase-tagged T7 phage strains were grown in parallel in 24-well blocks in an E. coli host derived from the BL21 strain. E. coli were grown to log-phase and infected with T7 phage from a frozen stock (multiplicity of infection=0.4) and incubated with shaking at 32° C. until lysis (90-150 minutes). The lysates were centrifuged (6,000×g) and filtered (0.2 μm) to remove cell debris. The remaining kinases were produced in HEK-293 cells and subsequently tagged with DNA for qPCR detection. […] The liganded beads were blocked with excess biotin and washed with blocking buffer (SeaBlock (Pierce), 1% BSA, 0.05% Tween 20, 1 mM DTT) to remove unbound ligand and to reduce non-specific phage binding. […] All reactions were performed in polypropylene 384-well plates in a final volume of 20 μL. […] The kinase concentration in the eluates was measured by qPCR.
(§3) An 11-point 3-fold serial dilution of each test compound was prepared in 100% DMSO at 100× final test concentration and subsequently diluted to 1× in the assay (final DMSO concentration=1%). Most Kos were determined using a compound top concentration=30,000 nM.
(§4) KD for each test compound was calculated with a standard dose-response curve using the Hill equation (equation (1)): […]
(§5) The Hill Slope was set to −1.
(§6) Curves were fitted using a non-linear least square fit with the Levenberg-Marquardt algorithm.

human RIPK3 = human RIPK3 (Homo sapiens (Human), UniProt Q9Y572); assay: KINOMEscan binding assay, human RIPK3; conditions: Table 21
Description: as §1, §2, §3, §4, §5, §6

human RIPK3, sequence (Q9Y572 whole entry): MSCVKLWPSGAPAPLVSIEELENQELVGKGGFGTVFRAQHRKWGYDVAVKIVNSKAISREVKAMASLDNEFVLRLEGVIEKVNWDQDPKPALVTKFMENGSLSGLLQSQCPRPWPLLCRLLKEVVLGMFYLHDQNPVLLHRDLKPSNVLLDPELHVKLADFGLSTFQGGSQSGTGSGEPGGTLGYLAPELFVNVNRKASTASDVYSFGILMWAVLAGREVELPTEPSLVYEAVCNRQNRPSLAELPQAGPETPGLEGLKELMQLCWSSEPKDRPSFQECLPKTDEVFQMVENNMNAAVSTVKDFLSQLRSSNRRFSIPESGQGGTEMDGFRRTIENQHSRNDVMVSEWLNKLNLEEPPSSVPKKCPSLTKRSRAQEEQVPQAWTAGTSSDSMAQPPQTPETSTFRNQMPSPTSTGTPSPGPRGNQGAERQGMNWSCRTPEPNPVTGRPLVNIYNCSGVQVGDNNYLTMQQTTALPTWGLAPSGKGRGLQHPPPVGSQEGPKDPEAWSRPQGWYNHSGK
human RIPK1, sequence (Q13546 whole entry): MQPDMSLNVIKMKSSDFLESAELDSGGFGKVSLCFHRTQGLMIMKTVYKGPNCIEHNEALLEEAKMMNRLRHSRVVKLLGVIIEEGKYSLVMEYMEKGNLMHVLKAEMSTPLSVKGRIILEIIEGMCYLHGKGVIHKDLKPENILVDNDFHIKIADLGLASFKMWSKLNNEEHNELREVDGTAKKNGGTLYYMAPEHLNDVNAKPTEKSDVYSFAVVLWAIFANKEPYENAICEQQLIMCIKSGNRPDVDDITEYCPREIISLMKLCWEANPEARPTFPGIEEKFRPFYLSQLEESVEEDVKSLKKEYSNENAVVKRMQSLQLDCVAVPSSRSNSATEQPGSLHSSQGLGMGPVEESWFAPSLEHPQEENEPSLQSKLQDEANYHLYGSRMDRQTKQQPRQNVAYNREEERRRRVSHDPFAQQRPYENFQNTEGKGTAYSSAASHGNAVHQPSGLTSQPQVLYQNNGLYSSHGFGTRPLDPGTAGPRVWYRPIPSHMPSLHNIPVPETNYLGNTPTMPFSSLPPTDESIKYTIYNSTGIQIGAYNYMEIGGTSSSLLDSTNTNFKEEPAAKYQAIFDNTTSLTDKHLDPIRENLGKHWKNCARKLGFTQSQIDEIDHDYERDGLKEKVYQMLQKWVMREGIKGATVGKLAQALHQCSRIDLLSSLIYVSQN

Kd (human RIPK1) | Kd (human RIPK3) | SMILES
> 10 µM | > 10 µM | C[C@H](Oc1cc(-c2nn(C)c3c(-c4cnn(C5CCN(CC(F)(F)F)CC5)c4)cnc(N)c23)ccc1NS(=O)(=O)C(F)F)c1ccc(F)cc1 [Compound 61, (S)-N-(4-(4-amino-1-methyl-7-(1-(1-(2,2,2-trifluoroethyl)piperidin-4-yl)-1H-pyrazol-4-yl)-1H-pyrazolo[4,3-c]pyridin-3-yl)-2-(1-(4-fluorophenyl)ethoxy)phenyl)-1,1-difluoromethanesulfonamide]
> 10 µM | 0.1 to 10 µM | C[C@H](Oc1cc(-c2nn(C)c3c(-c4cnn(C5CCCC5)c4)cnc(N)c23)ccc1NS(=O)(=O)C(F)F)c1ccc(F)cc1 [Compound 30, (S)-N-(4-(4-amino-7-(1-cyclopentyl-1H-pyrazol-4-yl)-1-methyl-1H-pyrazolo[4,3-c]pyridin-3-yl)-2-(1-(4-fluorophenyl)ethoxy)phenyl)-1,1-difluoromethanesulfonamide]
> 10 µM | > 10 µM | C[C@H](Oc1cc(-c2nn(C)c3c(-c4cnn(C5CC6(C5)CN(C)C6)c4)cnc(N)c23)ccc1NS(=O)(=O)C(F)F)c1ccc(F)cc1 [Compound 99, (S)-N-(4-(4-amino-1-methyl-7-(1-(2-methyl-2-azaspiro[3.3]heptan-6-yl)-1H-pyrazol-4-yl)-1H-pyrazolo[4,3-c]pyridin-3-yl)-2-(1-(4-fluorophenyl)eth-oxy)phenyl)-1,1-difluoromethane-sulfonamide]
> 10 µM | > 10 µM | Cn1nc(-c2ccc(NS(=O)(=O)C(F)F)c(OCc3ccc(F)cc3)c2)c2c(N)nccc21 [Compound 10, N-(4-{4-amino-1-methyl-1H-pyrazolo[4,3-c]pyridin-3-yl}-2-[(4-fluorophenyl)methoxy]phenyl)-1,1-difluoromethanesulfonamide]
> 10 µM | > 10 µM | C[C@H](Oc1cc(-c2nn(C)c3c(-c4ccc5c(c4)CC(=O)N5C)cnc(N)c23)ccc1NS(=O)(=O)C(F)F)c1ccc(F)cc1 [Compound 165, (S)-N-(4-(4-amino-1-methyl-7-(1-methyl-2-oxoindolin-5-yl)-1H-pyrazolo[4,3-c]pyridin-3-yl)-2-(1-(4-fluorophenyl)ethoxy)phenyl)-1,1-difluoromethanesulfonamide]

More lines, now with the values behind:

SMILES | Kd (human RIPK1) | Kd (human RIPK3)
C[C@H](Oc1cc(-c2nn(C)c3c(-c4cnn(C5CCOCC5)c4)cnc(N)c23)ccc1NS(=O)(=O)N(C)C)c1ccc(F)cc1 [Compound 124] | > 10 µM | > 10 µM
C[C@H](Oc1cc(-c2nn(C)c3c(-c4ccnc(N(C)C)c4)cnc(N)c23)ccc1NS(=O)(=O)C(F)F)c1ccc(F)cc1 [Compound 49, (S)-N-(4-(4-amino-7-(2-(dimethylamino)pyridin-4-yl)-1-methyl-1H-pyrazolo[4,3-c]pyridin-3-yl)-2-(1-(4-fluorophenyl)ethoxy)phenyl)-1,1-difluoromethanesulfonamide] | > 10 µM | > 10 µM
CCS(=O)(=O)Nc1ccc(-c2nn(C)c3c(-c4cnn(C5CCOCC5)c4)cnc(N)c23)cc1O[C@@H](C)c1ccc(F)cc1 [Compound 45, (S)-N-(4-(4-amino-1-methyl-7-(1-(tetrahydro-2H-pyran-4-yl)-1H-pyrazol-4-yl)-1H-pyrazolo[4,3-c]pyridin-3-yl)-2-(1-(4-fluorophenyl)ethoxy)phe-nyl)ethanesulfonamide] | > 10 µM | 0.1 to 10 µM
C[C@H](Oc1cc(-c2nn(C)c3c(-c4cccc(Cl)c4)cnc(N)c23)ccc1NS(=O)(=O)C(F)F)c1ccc(F)cc1 [Compound 84, (S)-N-(4-(4-amino-7-(3-chlorophenyl)-1-methyl-1H-pyrazolo[4,3-c]pyridin-3-yl)-2-(1-(4-fluorophenyl)ethoxy)phenyl)-1,1-difluoromethanesulfonamide] | > 10 µM | > 10 µM
